Here are results for 4 compounds from patent publication US9415030B2 (priority 2008, dated 2016).

The subject of data set [1] is cerebellar granule neurons. Particulars: cultured cerebellar granule neurons; cited from earlier work.
Data set [2] relates to human cerebellar granule neurons. Conditions: cultured cerebellar granule neurons; cited from earlier work.
Data set [3] deals with cognition. The text has this:
Available evidence consists of records for formal cognitive testing, school records from pre-kindergarten through college (in progress), SAT scores, including scores on practice tests in an SAT preparation course, and diary-recorded observations made in parental tutoring sessions occurring from first grade through college.
Preparation for the SAT test included a test preparation course that involved practice tests that simulated actual test conditions. […] It should be noted that both official and unofficial SAT tests were taken in the standard time intervals.
No parental tutoring was given and it should be noted that Subject 1 received no special accommodations in this course.
In the course of these explanations, the importance of these facts was strongly emphasized. One and a half months after the course was over, Subject 1 was again queried by their parent on this topic.

The test system of data set [4] is OCD, BDD, and ADHD symptoms.
Excerpt: Although individual symptoms have varied in intensity over time, the basic spectrum of signs and symptoms appears to have been unchanged over 15 years.
Participation in family gatherings has increased.
In data set [5] the target is NMDA co-agonist site (Homo sapiens, UniProt Q05586). Particulars: 0.8 g/kg body weight/day; cited from earlier work.
Data set [6] relates to OCD. Put plainly: Earlier treatments of Subject 1 (SSRIs, atypical neuroleptics, IVIG). In kind it is in vivo, human. Conditions: Subject 1, before glycine treatment.
Data set [7] can be described thus: clinical. Particulars: human, in vivo. The text has this: Hyperammonemia is seen in several abnormal conditions, e.g. inborn errors of metabolism that affect the urea cycle, small bowel syndrome, and others.
Data set [8] has as its system lupus mice. Conditions: fed a lot of arginine in their diet; cited from earlier work.
Setting [9] is: 1 year after initiation of glycine treatment.

Like-named read-outs stand apart in the source and are kept apart here.

With `CC[C@H]1OC(=O)[C@H](C)[C@@H](O[C@H]2C[C@@](C)(OC)[C@@H](O)[C@H](C)O2)[C@H](C)[C@@H](O[C@@H]2O[C@H](C)C[C@H](N(C)C)[C@H]2O)[C@](C)(OC)C[C@@H](C)C(=O)[C@H](C)[C@@H](O)[C@]1(C)O` [clarithromycin], the “NMDA receptor mediated excitotoxic cell death” value in data set [1] is reported as “inhibited NMDA receptor mediated excitotoxic cell death”. Further, the kainate-mediated excitotoxicity entry in data set [2] is given as “not kainate-mediated excitotoxicity”.

As for glycine, in data set [3] (10 and 14 weeks after glycine cessation), the “college algebra test scores” value is reported as “low 90% range”. The “college algebra test scores” value in data set [3] (21 and 26 weeks after glycine cessation) is “low 80% range”. In data set [3] (course begun six months after starting glycine), the “improvement of SAT scores during Kaplan preparation course” value is recorded as “approximately 250 points”. Further, the cognition entry in data set [3] (high-dose glycine treatment) is “cognition improved”. Moreover, in data set [3] (nine months after glycine cessation), the “memory consolidation and/or retrieval” value is recorded as “return of difficulties in memory consolidation and/or retrieval”. For the same compound, in data set [3] (sustained glycine treatment), the “SAT math score, official test” value is on record as 520; the “SAT math score, practice test 1” value is 390; the “SAT math score, practice test 2” value is listed as 460; the “SAT math score, practice test 3” value came to 490. Moreover, in data set [3] (sustained glycine treatment), the “SAT verbal score, official test” value is 660; the “SAT verbal score, practice test 1” value came to 540; the “SAT verbal score, practice test 2” value was determined as 540; the “SAT verbal score, practice test 3” value came to 600. Also, in data set [3] (sustained glycine treatment), the “percentile of official SAT verbal score” value worked out at 90 percentile. In data set [4] (setting [9]), the intolerance of mirrors result is given as “reduced intolerance of mirrors” and the “perseverative behavior during taxi rides” value is “much reduced”. Besides, the “decline on glycine cessation” value in data set [4] (6 week cessation with no infection) was “little or no decline”. Further, the “BDD signs and symptoms after glycine cessation” value in data set [4] (9 month cessation begun May 2006) is “clear increase in BDD signs and symptoms”. In data set [4] (Subject 1, during glycine treatment), the line crossing obsession entry is reported as “no signs of the line crossing obsession”. Moreover, the “time to first behavioral improvement after initiation of glycine treatment” value in data set [4] (Subject 1, parent's report) was “about three”. Moreover, the “recovery of gains after glycine resumption” value in data set [4] (over three months after resumption) is “previous gains were largely recovered”. Also, the “BDD signs and symptoms” value in data set [4] (periods of sustained glycine treatment) was “continued to improve”. In addition, in data set [5], the NMDA activity result is “moderately enhanced NMDA activity”.

Consider `Fc1ccc([C@@H]2CCNC[C@H]2COc2ccc3c(c2)OCO3)cc1` [Paxil], for which, in data set [6], the “response of OCD to treatment” value is “non-responder”.

In data set [7], `N=C(N)NCCC[C@H](N)C(=O)O` [arginine, L-arginine] registered a concentration at 3 h of 98 µM and a plasma ammonia concentration of about 94 µM. In addition, the survival result in data set [8] is reported as “die more quickly”.
